Test results: the METLIN SMRT retention time set (Domingo-Almenara et al. 2019)

Test: gradient 5% acetonitrile 3 min, to 50% in 2 min, to 85% in 15 min, held 3 min, 100 µL/min
Details: column: Zorbax Extend-C18 2.1 x 50 mm; eluents: water / acetonitrile, 0.1% formic acid
Outline: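 Mixtures of ~100 pure standards were chromatographed on a Zorbax Extend-C18 column (2.1 × 50 mm, 1.8 μm) at 100 μL/min using water and acetonitrile, each with 0.1% formic acid. Detection used a quadrupole time-of-flight mass spectrometer in positive and negative ionization mode, and data collection spanned 3 months. Retention time was obtained from adduct peaks picked computationally and each checked manually.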

Compound	RP-LC retention time
CC1CCN(c2cc(-n3cnc(C(=O)N4CCCCCC4)c3)ncn2)CC1	1010 s
CCn1cc(CCNC(=O)c2ccccc2Br)c2cccnc21	700 s
C=CCN1C(=O)COc2ccc(-c3nc(NC(=O)c4ccccc4)sc3C)cc21	1040 s
O=C(NCc1ccccc1Cl)C1CC(=O)N(CCc2c[nH]c3ccc(F)cc23)C1 (stereo not drawn)	811 s
CNC(=O)c1cnn(-c2cccc(C)c2)c1-n1cccc1	804 s
O=C(CCc1c(-c2ccc(F)cc2)nc2ccccn12)N1CCN(c2ccccc2)CC1	693 s
O=C(CNC(=O)c1ccc(F)cc1)Nc1nc2ccccc2[nH]1	608 s
O=C(CCC(=O)N1CCN(c2ccc(=O)n(-c3ccccc3)n2)CC1)N1CCOCC1	612 s
O=C(Cn1ccn2nc(-c3ccc(F)cc3)c(CO)c2c1=O)Nc1ccc(F)c(F)c1	865 s
Cc1cccc(-c2nnc(-c3nc(NCCCN4CCCC4=O)c4ccccc4n3)o2)c1	814 s
Cn1cc(S(=O)(=O)Nc2ccc(F)cc2Cl)c2cccnc21	814 s
Cc1cc(C)cc(S(=O)(=O)NCc2c(-c3ccccc3)nc3sc(C)nn23)c1	921 s
Cc1ccccc1S(=O)(=O)N1CCC2(CC1)NCCN=C2NCc1cccc(F)c1	712 s
Cc1noc(-c2ccnc(SCC(=O)Nc3cccc(C(F)(F)F)c3)c2)n1	933 s
CCN1C(=O)C2(CCN(S(=O)(=O)c3cccs3)CC2)c2ccccc21	983 s
CCOc1ccc(-n2c(=O)c3sccc3n(Cc3nc(-c4ccccc4)no3)c2=O)cc1	1010 s
Cc1nc(-c2cc3ccccc3nc2N2CCN(C(=O)Cc3ccccc3)CC2)no1	934 s
Cc1ccc(C2Cn3nnc(-c4nc(-c5ccccc5Br)no4)c3CO2)c(C)c1 (stereo not drawn)	1270 s
Cc1noc(-c2ccc(-n3cnc(C(=O)NCc4ccc(Cl)cc4)c3)nc2)n1	865 s
CN(C)[C@@H]1CN(C(=O)C2CCCCC2)CC[C@@H]1CO	585 s
CC(C)c1cc(C(=O)Nc2cccc(Cl)c2)nc2ccnn12	1230 s
CCOC(=O)c1c(C)n(-c2ccc(N(C)C)cc2)c2ccc(OCC(N)=O)cc12	938 s
O=C(NCc1ccco1)C1CCN(c2ncccc2-c2nc(-c3ccccc3)no2)CC1	964 s

Compound	RP-LC retention time
COc1ccc(N2C(=O)C3N=NN(Cc4nc(-c5ccc(Br)cc5)no4)C3C2=O)cc1 (stereo not drawn)	1020 s
Cc1ccc(NC(=O)Cn2nc3cc(-c4ccccc4)nc(C)n3c2=O)c(F)c1	958 s
Cc1nc(C#Cc2cccnc2)cs1	747 s
CCn1c(CCNC(=O)c2ccc(F)c(F)c2)nc2cccnc21	641 s
NC(=O)c1nsc2c(=O)n(CC(=O)NCc3ccco3)cnc12	589 s
CSc1cccc(NC(=O)Cc2csc(SCC(=O)Nc3ccc(C)cc3)n2)c1	900 s
Cc1cc(C)cc(Nc2nc3ccncc3n(Cc3ccccc3)c2=O)c1	817 s
O=C(c1ccc(F)c(F)c1)N1CCCC1c1nc(-c2ccccc2)no1 (stereo not drawn)	653 s
c1ccc(-c2nc(-c3ccncc3)no2)c(OC2CCN(Cc3ccsc3)C2)c1 (stereo not drawn)	679 s
Cc1ccc(S(=O)(=O)N2c3ccccc3NC3=C(C(=O)CCC3)C2c2ccco2)cc1C (stereo not drawn)	860 s
N#CCCN1CCN(C2=NC(=O)/C(=C\c3cccs3)S2)CC1	611 s
C[C@@H]1COC(Nc2ccc3ncnc(Nc4ccc(OCc5nccs5)c(Cl)c4)c3c2)=N1	634 s
Cn1nc(C(=O)N2CCCC2)c2c1CCN(C(=O)CCC(=O)N1CCCCCC1)C2	664 s
CC(=O)N1c2ccc(S(=O)(=O)N3CCCCC3)cc2CC1C(=O)NC1CCCCC1 (stereo not drawn)	905 s
Cc1cc(C)cc(NS(=O)(=O)c2cc3n(c2)CCCNC3=O)c1	678 s
CCCc1noc(-c2ccc3nnc(CC(=O)Nc4ccccc4F)n3c2)n1	872 s
O=C(c1ccc(N2CCNC(c3ccccc3)C2)nc1)N1CCSCC1 (stereo not drawn)	606 s
Cc1nn(-c2ccccc2)c2c1N(C(=O)CCC(=O)NCCc1c[nH]c3ccccc13)CCS2	850 s
CC1CN(C(=O)c2cccc3c2-c2ccccc2C3=O)CC(C)O1 (stereo not drawn)	754 s
Cc1ccc(-c2nnc3ccc(SCC(=O)OCc4ccccc4)nn23)cc1	840 s
CCCC(NC(=O)c1ccc(OCC)c(OCC)c1)C(=O)Nc1nc2ccccc2[nH]1 (stereo not drawn)	733 s
Cc1cccc(-n2ccc(=O)c(-c3nc(-c4ccc5c(c4)OCO5)no3)n2)c1	894 s

Further lines, results first:

RP-LC retention time	Compound
698 s	CCC(Oc1ccc(=O)n(-c2cc(Cl)ccc2C)n1)C(=O)NCCOC (stereo not drawn)
751 s	O=S(=O)(Nc1cccn2c(C3CCC3)nnc12)c1ccc2c(c1)OCCO2
724 s	Cc1cc(=O)n(CC(=O)Nc2cc(F)cc(F)c2)c(N2CCOCC2)n1
880 s	Cc1noc(C)c1-c1ccc(S(=O)(=O)Nc2ccc3c(c2)OCCO3)cc1
595 s	O=C(NCCCN1CCOCC1)c1ccc2ccnc(N3CCN(c4ccccc4F)CC3)c2c1
629 s	CCOC(=O)C1CCC(CNC(=O)N2CCCn3nc(-c4cccnc4)cc3C2)CC1 (stereo not drawn)
654 s	Cc1ccc(F)c(NS(=O)(=O)c2cc3n(c2)CCCNC3=O)c1
911 s	CCOC(=O)CNC(=O)N1CCCCCC1c1ccccc1Cl (stereo not drawn)
667 s	Cc1ccc(NC(=O)N2CCCC(Cn3cnc4cccnc43)C2)cc1 (stereo not drawn)
832 s	Cc1cc(C)cc(C(=O)N2CCCC(C(=O)NCc3cccs3)C2)c1 (stereo not drawn)
600 s	CC1C(=O)NCCN1C(=O)Cc1ccc2c(c1)OCO2 (stereo not drawn)
946 s	Cc1ccc(-n2c(N3CCCC(C(=O)NCc4ccccc4Cl)C3)nc3ccsc3c2=O)cc1 (stereo not drawn)
810 s	O=C(Nc1ccc(F)c(F)c1)C1CCN(C(=O)C2Sc3ccccc3NC2=O)CC1 (stereo not drawn)
591 s	CC(C)CCNC(=O)C1CCCN(C(=O)c2cc(-c3ccncc3)n[nH]2)C1 (stereo not drawn)
762 s	O=C(NCC1CCCO1)c1ccccc1NC(=O)C1CCN(C(=O)c2ccc(F)cc2)CC1 (stereo not drawn)
719 s	CC1CCN(c2cc(-n3cnc(C(=O)N4CCSCC4)c3)ncn2)CC1
846 s	Cc1nsc2ncc(C(=O)N3CCOCC3)c(N3CCC(C(=O)Nc4ccc(Cl)cc4)CC3)c12
932 s	COc1cc(NC(=O)c2noc3c2CC(C)CC3)cc(OC)c1OC (stereo not drawn)
1170 s	COc1ccc(NC(=O)c2nc(C3CCC3)oc2C)cc1C(F)(F)F
788 s	CC(C)(C)NC(=O)N1CCC2(CC1)CN(c1ccccc1)C2=O
617 s	Cc1noc(/C=C\c2ccc(S(=O)(=O)N3CCN(C)CC3)cc2)c1NC(=O)C1CC1
819 s	CCC(=O)N1CCc2c(C(=O)N3CCN(c4cccc(OC)c4)CC3)cccc21

RP-LC retention time	Compound
769 s	CC1=C(c2ccc(C(C)C)cc2)S(=O)(=O)N=C1N1CCC(NC(=O)c2ccoc2)CC1
778 s	Cc1ccc(F)cc1NC(=O)CSc1nc(N2CCCCC2)nc2ccccc12
798 s	O=C(Nc1ccc(F)cc1)C1(c2cccs2)CCOCC1
657 s	COc1ccc(NC(=O)NCC2CCOCC2)c(C)c1
1090 s	Cc1cccc(NC(=O)C2CCN(S(C)(=O)=O)c3cc(Cl)ccc3O2)c1C (stereo not drawn)
619 s	CN(C)CCNC(=O)CN1C(=O)C2CCCCN2c2ccc(C(=O)N3CCCCC3)cc21 (stereo not drawn)
726 s	CCC(=O)N1CCc2cc(N3CC(C(=O)N4CCC(C)CC4)CC3=O)ccc21 (stereo not drawn)
1290 s	COc1cccc(-n2c(=O)c(C(=O)Nc3ccc(F)cc3Cl)c(O)c3cccnc32)c1
732 s	COC(=O)c1ccc(C(=O)NCC2CCN(S(=O)(=O)C3CC3)CC2)cc1
1170 s	COC(=O)c1sccc1NC(=O)Cn1c(C)cc(C)c(-c2nc(-c3cccc(Cl)c3)no2)c1=O
639 s	COc1ccc(OC)c(CNC(=O)c2cn3c(n2)COCC3)c1
990 s	COc1ccc(OC)c2sc(NC(=O)c3ccc(Cl)s3)nc12
626 s	Cc1cc(N2CCN(C(=O)Nc3ccccc3F)CC2)nc(N2CCCC2)n1
823 s	CC1(C)C(=O)N(CC(=O)Nc2ccc3c(c2)OCCO3)c2ccccc21
818 s	Cc1[nH]c(C(=O)N2CCC(CC(=O)NCc3ccc(F)cc3)CC2)c(C)c1C(=O)OC(C)C
909 s	COc1ccc(C2(CNC(=O)C(=O)Nc3ccc(N4CCCC4=O)c(C)c3)CCCC2)cc1
695 s	C=CC(=O)Nc1cccc(Oc2nc(Nc3ccc(N4CCN(C)CC4)cc3)ncc2Cl)c1
857 s	CC1(C(=O)NCc2ccccc2)CCCN(C(=O)NC2CCCCC2)C1 (stereo not drawn)
785 s	O=C(NC1CC1)c1ccc(OCC2CCCN2C(=O)c2cc(F)ccc2F)cc1 (stereo not drawn)
1310 s	Cc1ccc(C)c(-c2coc(-c3ccc(NC(=O)COc4ccc(F)cc4)cc3)n2)c1
608 s	Cc1noc(CNC(=O)C2CCN(C(=O)Cn3c(=O)oc4ccccc43)CC2)n1
